Experimental data from ChEMBL document CHEMBL1201862, “PubChem BioAssay data set” (2004).
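Dose response: 5 concentrations. Exposure: 48 h. Format: 96-well plates. Endpoint: linear interpolation; highest concentration if not reached. The concentration for 50% growth inhibition is given as GI50.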 The source made the active and inactive calls. Cut-off read from the data, not from the text of the source: active = GI50 up to about 1.1 µM and inactive = higher.

Legend:
Test in all cases: NCI anticancer screen, dose series, 48 h
[1] = tested on: OVCAR-4
[2] = tested on: RXF 631
[3] = tested on: SF-539
[4] = tested on: M19-MEL
[5] = tested on: HCC 2998
[6] = tested on: NCI-H522
[7] = tested on: LOX IMVI
[8] = tested on: LXFL 529
[9] = tested on: M14
[10] = tested on: EKVX
[11] = tested on: SNB-75
[12] = tested on: HOP-92
[13] = tested on: OVCAR-5
[14] = tested on: A498
[15] = tested on: A549
[16] = tested on: SF-268
[17] = tested on: NCI-H226
[18] = tested on: UO-31
[19] = tested on: HOP-62
[20] = tested on: UACC-62
[21] = tested on: COLO 205
[22] = tested on: HL-60
[23] = tested on: HT-29
[24] = tested on: OVCAR-3
[25] = tested on: HCT-15
[26] = tested on: IGROV-1
[27] = tested on: SW-620
[28] = tested on: CCRF-CEM
[29] = tested on: U-251
[30] = tested on: Malme-3M
[31] = tested on: NCI-H23
[32] = tested on: SK-MEL-28
[33] = tested on: SF-295
[34] = tested on: CAKI-1
[35] = tested on: RPMI-8226
[36] = tested on: TK-10
[37] = tested on: SK-OV-3
[38] = tested on: OVCAR-8
[39] = tested on: MOLT-4
[40] = tested on: ACHN
[41] = tested on: DLD-1
[42] = tested on: HOP-18
[43] = tested on: UACC-257
[44] = tested on: DMS-114
[45] = tested on: SNB-78
[46] = tested on: SN12C
[47] = tested on: SK-MEL-5
[48] = tested on: K562
[49] = tested on: SNB-19
[50] = tested on: HCT-116
[51] = tested on: SK-MEL-2
[52] = tested on: KM-20L2
[53] = tested on: DMS-273
[54] = tested on: SR
[55] = tested on: 786-0
[56] = tested on: NCI-H460
[57] = tested on: RXF 393
[58] = tested on: KM12

CCOc1ccc(NC(=O)/C(=C\c2ccc(C)cc2)C(C)=O)cc1
GI50 [1]: > 100 µM (inactive)
GI50 [2]: > 100 µM (inactive)
GI50 [3]: > 100 µM (inactive)
GI50 [4]: > 100 µM (inactive)
GI50 [5]: > 100 µM (inactive)
GI50 [6]: > 100 µM (inactive)
GI50 [7]: > 100 µM (inactive)
GI50 [8]: > 100 µM (inactive)
GI50 [9]: > 100 µM (inactive)
GI50 [10]: > 100 µM (inactive)
GI50 [11]: > 100 µM (inactive)
GI50 [12]: > 100 µM (inactive)
GI50 [13]: > 100 µM (inactive)
GI50 [14]: > 100 µM (inactive)
GI50 [15]: > 100 µM (inactive)
GI50 [16]: > 100 µM (inactive)
GI50 [17]: > 100 µM (inactive)
GI50 [18]: > 100 µM (inactive)
GI50 [19]: > 100 µM (inactive)
GI50 [20]: > 100 µM (inactive)
GI50 [21]: > 100 µM (inactive)
GI50 [22]: < 0.01 µM (active)
GI50 [23]: > 100 µM (inactive)
GI50 [24]: > 100 µM (inactive)
GI50 [25]: > 100 µM
GI50 [26]: > 100 µM (inactive)
GI50 [27]: > 100 µM (inactive)
GI50 [28]: > 100 µM (inactive)
GI50 [29]: > 100 µM (inactive)
GI50 [30]: > 100 µM (inactive)
GI50 [31]: > 100 µM (inactive)
GI50 [32]: > 100 µM (inactive)
GI50 [33]: > 100 µM (inactive)
GI50 [34]: > 100 µM (inactive)
GI50 [35]: > 100 µM (inactive)
GI50 [36]: > 100 µM (inactive)
GI50 [37]: > 100 µM (inactive)
GI50 [38]: > 100 µM (inactive)
GI50 [39]: > 100 µM (inactive)
GI50 [40]: > 100 µM (inactive)
GI50 [41]: > 100 µM (inactive)
GI50 [42]: > 100 µM (inactive)
GI50 [43]: > 100 µM (inactive)
GI50 [44]: > 100 µM (inactive)
GI50 [45]: > 100 µM (inactive)
GI50 [46]: > 100 µM (inactive)
GI50 [47]: > 100 µM (inactive)
GI50 [48]: > 100 µM (inactive)
GI50 [49]: > 100 µM (inactive)
GI50 [50]: > 100 µM (inactive)
GI50 [51]: > 100 µM (inactive)
GI50 [52]: > 100 µM (inactive)
GI50 [53]: > 100 µM (inactive)
GI50 [54]: < 0.01 µM (active)
GI50 [55]: > 100 µM (inactive)

CC1CN(C(=O)CN2CCC(CCCCN(C)C)CC2)c2ccccc2NC1=O (stereo not given)
GI50 [1]: > 100 µM (inactive)
GI50 [2]: > 100 µM (inactive)
GI50 [4]: > 100 µM (inactive)
GI50 [5]: > 100 µM (inactive)
GI50 [7]: > 100 µM (inactive)
GI50 [8]: > 100 µM (inactive)
GI50 [9]: > 100 µM (inactive)
GI50 [12]: > 100 µM (inactive)
GI50 [13]: > 100 µM (inactive)
GI50 [14]: > 100 µM (inactive)
GI50 [15]: > 100 µM (inactive)
GI50 [16]: > 100 µM (inactive)
GI50 [17]: > 100 µM (inactive)
GI50 [18]: > 100 µM (inactive)
GI50 [19]: > 100 µM (inactive)
GI50 [20]: > 100 µM (inactive)
GI50 [21]: > 100 µM (inactive)
GI50 [22]: > 100 µM (inactive)
GI50 [23]: > 100 µM (inactive)
GI50 [24]: > 100 µM (inactive)
GI50 [25]: > 100 µM
GI50 [26]: > 100 µM (inactive)
GI50 [27]: > 100 µM (inactive)
GI50 [28]: > 100 µM (inactive)
GI50 [29]: > 100 µM (inactive)
GI50 [30]: > 100 µM (inactive)
GI50 [31]: > 100 µM (inactive)
GI50 [32]: > 100 µM (inactive)
GI50 [33]: > 100 µM (inactive)
GI50 [34]: 90.6 µM (inactive)
GI50 [35]: > 100 µM (inactive)
GI50 [37]: > 100 µM (inactive)
GI50 [39]: > 100 µM (inactive)
GI50 [40]: > 100 µM (inactive)
GI50 [41]: > 100 µM (inactive)
GI50 [42]: > 100 µM (inactive)
GI50 [43]: > 100 µM (inactive)
GI50 [44]: > 100 µM (inactive)
GI50 [46]: > 100 µM (inactive)
GI50 [56]: > 100 µM (inactive)
GI50 [47]: > 100 µM (inactive)
GI50 [48]: > 100 µM (inactive)
GI50 [49]: > 100 µM (inactive)
GI50 [50]: > 100 µM (inactive)
GI50 [52]: > 100 µM (inactive)
GI50 [53]: > 100 µM (inactive)
GI50 [54]: > 100 µM (inactive)
GI50 [55]: > 100 µM (inactive)

Nc1ncnc2c1ncn2CC(O)CO (stereo not given)
GI50 [1]: > 100 µM (inactive)
GI50 [2]: > 100 µM (inactive)
GI50 [3]: > 100 µM (inactive)
GI50 [4]: > 100 µM (inactive)
GI50 [5]: 86.7 µM (inactive)
GI50 [6]: > 100 µM (inactive)
GI50 [7]: > 100 µM (inactive)
GI50 [8]: > 100 µM (inactive)
GI50 [9]: > 100 µM (inactive)
GI50 [10]: > 100 µM (inactive)
GI50 [11]: > 100 µM (inactive)
GI50 [12]: > 100 µM (inactive)
GI50 [14]: > 100 µM (inactive)
GI50 [15]: > 100 µM (inactive)
GI50 [16]: > 100 µM (inactive)
GI50 [17]: > 100 µM (inactive)
GI50 [18]: > 100 µM (inactive)
GI50 [20]: > 100 µM (inactive)
GI50 [21]: > 100 µM (inactive)
GI50 [22]: > 100 µM (inactive)
GI50 [23]: > 100 µM (inactive)
GI50 [24]: > 100 µM (inactive)
GI50 [25]: > 100 µM
GI50 [26]: > 100 µM (inactive)
GI50 [27]: > 100 µM (inactive)
GI50 [28]: > 100 µM (inactive)
GI50 [30]: > 100 µM (inactive)
GI50 [31]: > 100 µM (inactive)
GI50 [32]: > 100 µM (inactive)
GI50 [33]: > 100 µM (inactive)
GI50 [34]: > 100 µM (inactive)
GI50 [57]: > 100 µM (inactive)
GI50 [35]: > 100 µM (inactive)
GI50 [36]: > 100 µM (inactive)
GI50 [37]: > 100 µM (inactive)
GI50 [38]: > 100 µM (inactive)
GI50 [39]: > 100 µM (inactive)
GI50 [41]: > 100 µM (inactive)
GI50 [42]: > 100 µM (inactive)
GI50 [43]: > 100 µM (inactive)
GI50 [44]: > 100 µM (inactive)
GI50 [45]: > 100 µM (inactive)
GI50 [46]: > 100 µM (inactive)
GI50 [56]: > 100 µM (inactive)
GI50 [47]: > 100 µM (inactive)
GI50 [48]: > 100 µM (inactive)
GI50 [49]: > 100 µM (inactive)
GI50 [58]: > 100 µM (inactive)
GI50 [50]: > 100 µM (inactive)
GI50 [51]: > 100 µM (inactive)
GI50 [53]: > 100 µM (inactive)
GI50 [55]: > 100 µM (inactive)
